# Molecular target: T1, rhesus (Macacca Mulatta) H3 receptor (Macaca mulatta, UniProt Q865E1)
# T1 construct: pcDNA5/FRT/TO (Invitrogen) containing the rhesus monkey (Macacca Mulatta) 445 amino acid H3 receptor
# Assay: Rhesus H3 [3H]-Methylhistamine radioligand binding assay (SPA)
# Parameters: species or system rhesus monkey (Macacca Mulatta)
# Settings: [3H]-Methylhistamine 2 nM, rhesus H3 membranes, Cheng-Prusoff; read-out: Affinity: ki in Rhesus H3 membrane binding ki
# Procedure: Rhesus H3 membranes were prepared from the Flp-In T-REx 293 Cell Line (Invitrogen) stably transfected with pcDNA5/FRT/TO (Invitrogen) containing the rhesus monkey (Macacca Mulatta) 445 amino acid H3 receptor. (Genbank #AY231164). Stably transfected cultures were amplified in tissue culture flasks by standard tissue culture methods and induced to express rhesus H3 by exposure to 500 ng/ml tetracycline (Cellgro) for 24 hours. After induction, cells were dissociated from flasks utilizing Cell Stripper (Cellgro). Cells were centrifuged (1K×g, 5 min) and pellet frozen in an ethanol-dry ice bath to disrupt cell membranes. Frozen cell pellet was re-suspended in 5 mM HEPES (pH 7.4, Invitrogen) at 10 ml/1000 cm2 of harvested cells. The cell suspension was drawn through an 18 gauge needle (2-3×) followed by a 23 gauge needle (2-3×) to further disrupt cell membranes. The cell suspension was centrifuged (40K×g, 30 min). Cell membrane pellet was re-suspended in 5 mM HEPES (pH 7.4, Invitrogen) at a final protein concentration of 10 mg/ml. Rhesus H3 membranes were stored under liquid nitrogen prior to use in [3H]-Methylhistamine and GTPγS radioligand binding assays.
# Rhesus H3 radioligand binding assay was performed using rhesus H3 receptor membranes (prepared as described above), [3H]-Methylhistamine (Perkin Elmer) and WGA SPA beads (wheat germ agglutinin scintillation proximity assay) beads (Amersham). The assay was performed in 96-well Opti-Plates (Packard). Each reaction contained 50 μl rhesus H3 membranes (20-30 μg total protein), 50 μl WGA SPA beads (0.1 μg) and 50 μl of 83Ci/mmol [^3H]-Methylhistamine (final concentration 2 nM) and 50 μl of tested compound. The compounds of this invention and/or vehicle were diluted with binding buffer from 10 mM DMSO stocks. Assay plates were sealed with TopSeal (Perkin Elmer) and mixed on shaker (25° C., 1 hour). Assay plates were read on TopCount scintillation counter (Packard). Results were analyzed by Hill transformation and Ki values were determined by Cheng-Prusoff equation.
# T1 sequence (Q865E1 1-445): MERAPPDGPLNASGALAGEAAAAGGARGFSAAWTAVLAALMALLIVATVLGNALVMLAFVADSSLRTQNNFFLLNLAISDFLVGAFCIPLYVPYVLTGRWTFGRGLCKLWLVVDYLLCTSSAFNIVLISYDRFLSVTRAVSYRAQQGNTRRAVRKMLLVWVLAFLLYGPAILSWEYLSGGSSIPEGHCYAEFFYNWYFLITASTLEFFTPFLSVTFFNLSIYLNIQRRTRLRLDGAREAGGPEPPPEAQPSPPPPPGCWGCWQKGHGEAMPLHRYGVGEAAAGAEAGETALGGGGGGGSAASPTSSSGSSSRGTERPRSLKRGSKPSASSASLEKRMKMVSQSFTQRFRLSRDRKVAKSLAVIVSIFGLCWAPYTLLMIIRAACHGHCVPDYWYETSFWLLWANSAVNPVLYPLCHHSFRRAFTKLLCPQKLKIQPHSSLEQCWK
row,Structure (SMILES),Ki
1,"CC(=O)N1CCCC(c2ccc(C(=O)Nc3ccc(N4CCC(CN5CCCC5C)C4)cc3C)cc2)C1 (stereo not shown) [Example 10, 4-(1-Acetyl-piperidin-3-yl)-N-{2-methyl-4-[3-(2-methyl-pyrrolidin-1-ylmethyl)-pyrrolidin-1-yl]-phenyl}-benzamide]",29.8 nM
2,"Cc1ccc2oc(C(=O)Nc3ccc(N4CCC(CN5CCCC5C)C4)cc3C)cc(=O)c2c1 (stereo not shown) [Example 19, 6-Methyl-4-oxo-4H-chromene-2-carboxylic acid {2-methyl-4-[3-(2-methyl-pyrrolidin-1-ylmethyl)-pyrrolidin-1-yl]-phenyl}-amide]",26.5 nM
3,"Cc1nc2cc(C(=O)Nc3ccc(N4CCC(CN5CCCC5C)C4)cc3C)ccc2[nH]1 (stereo not shown) [Example 1, 2-M ethyl-1H-benzoimidazole-5-carboxylic acid {2-methyl-4-[3-(2-methyl-pyrrolidin-1-ylmethyl)-pyrrolidin-1-yl]-phenyl}-amide]",15.7 nM
4,"Cc1cc(N2CCC(CN3CCCC3C)C2)ccc1NC(=O)c1ccc2c(c1)OCO2 (stereo not shown) [Example 7, Benzo[1,3]dioxole-5-carboxylic acid {2-methyl-4-[3-(2-methyl-pyrrolidin-1-ylmethyl)-pyrrolidin-1-yl]-phenyl}-amide]",34.2 nM
5,"Cc1cc(N2CCC(CN3CCCC3C)C2)ccc1NC(=O)c1cnc(NCCO)c(Cl)c1 (stereo not shown) [Example 2, 5-Chloro-6-(2-hydroxy-ethylamino)-N-{2-methyl-4-[3-(2-methyl-pyrrolidin-1-ylmethyl)-pyrrolidin-1-yl]-phenyl}-nicotinamide]",51.2 nM
6,"COCCNC(=O)c1ccc(C(=O)Nc2ccc(N3CCC(CN4CCCC4C)C3)cc2C)cn1 (stereo not shown) [Example 14, Pyridine-2,5-dicarboxylic acid 2-[(2-methoxy-ethyl)-amide]5-({2-methyl-4-[3-(2-methyl-pyrrolidin-1-ylmethyl)-pyrrolidin-1-yl]-phenyl}-amide)]",32.3 nM
7,"CC1=NN(c2ccc(C(=O)Nc3ccc(N4CCC(CN5CCCC5C)C4)cc3C)cc2)C(=O)C1 (stereo not shown) [Example 18, N-{2-Methyl-4-[3-(2-methyl-pyrrolidin-1-ylmethyl)-pyrrolidin-1-yl]-phenyl}-4-(3-methyl-5-oxo-4,5-dihydro-pyrazol-1-yl)-benzamide]",59.4 nM
8,"Cc1cc(N2CCC(CN3CCCC3C)C2)ccc1NC(=O)c1ccc2c(c1)NC(=O)CNC2=O (stereo not shown) [Example 13, 2,5-Dioxo-2,3,4,5-tetrahydro-1H-benzo[e][1,4]diazepine-8-carboxylic acid {2-methyl-4-[3-(2-methyl-pyrrolidin-1-ylmethyl)-pyrrolidin-1-yl]-phenyl}-amide]",9.3 nM
9,"Cc1cc(N2CCC(CN3CCCC3C)C2)ccc1NC(=O)c1ccc(-n2ccnc2)cc1 (stereo not shown) [Example 9, 4-Imidazol-1-yl-N-{2-methyl-4-[3-(2-methyl-pyrrolidin-1-ylmethyl)-pyrrolidin-1-yl]-phenyl}-benzamide]",3.1 nM
10,"Cc1cc(N2CCC(CN3CCCC3C)C2)ccc1NC(=O)c1ccc2c(c1)CCO2 (stereo not shown) [Example 5, 2,3-Dihydro-benzofuran-5-carboxylic acid {2-methyl-4-[3-(2-methyl-pyrrolidin-1-ylmethyl)-pyrrolidin-1-yl]-phenyl}-amide]",40.4 nM
11,"Cc1cc(N2CCC(CN3CCCC3C)C2)ccc1NC(=O)c1ccc2c(c1)C(O)C(O)C(C)(C)O2 (stereo not shown) [Example 16, 3,4-Dihydroxy-2,2-dimethyl-chroman-6-carboxylic acid {2-methyl-4-[3-(2-methyl-pyrrolidin-1-ylmethyl)-pyrrolidin-1-yl]-phenyl}-amide]",67.6 nM
12,"Cc1cc(N2CCC(CN3CCCC3C)C2)ccc1NC(=O)c1ccc(CO)cc1 (stereo not shown) [Example 11, 4-Hydroxymethyl-N-{2-methyl-4-[3-(2-methyl-pyrrolidin-1-ylmethyl)-pyrrolidin-1-yl]-phenyl}-benzamide]",62.1 nM

# Further compounds by falling Ki, results first:
row,Ki,Structure (SMILES)
1,95.4 nM,"Cc1cc(N2CCC(CN3CCCC3C)C2)ccc1NC(=O)c1ccc(COCc2ccccc2)nc1 (stereo not shown) [Example 6, 6-Benzyloxymethyl-N-{2-methyl-4-[3-(2-methyl-pyrrolidin-1-ylmethyl)-pyrrolidin-1-yl]-phenyl}-nicotinamide]"
2,94.7 nM,"Cc1cc(N2CCC(CN3CCCC3C)C2)ccc1NC(=O)c1cnc2cc(Cl)ccc2c1O (stereo not shown) [Example 3, 7-Chloro-4-hydroxy-quinoline-3-carboxylic acid {2-methyl-4-[3-(2-methyl-pyrrolidin-1-ylmethyl)-pyrrolidin-1-yl]-phenyl}-amide]"
3,66.7 nM,"COc1ccc2cc(C(=O)Nc3ccc(N4CCC(CN5CCCC5C)C4)cc3C)oc2c1 (stereo not shown) [Example 15, 6-Methoxy-benzofuran-2-carboxylic acid {2-methyl-4-[3-(2-methyl-pyrrolidin-1-ylmethyl)-pyrrolidin-1-yl]-phenyl}-amide]"
4,61.5 nM,"COc1ccc2[nH]c(C(=O)Nc3ccc(N4CCC(CN5CCCC5C)C4)cc3C)cc2c1 (stereo not shown) [Example 12, 5-Methoxy-1H-indole-2-carboxylic acid {2-methyl-4-[3-(2-methyl-pyrrolidin-1-ylmethyl)-pyrrolidin-1-yl]-phenyl}-amide]"
5,39.3 nM,"Cc1cc(N2CCC(CN3CCCC3C)C2)ccc1NC(=O)c1ccc(-n2cccc2)nc1 (stereo not shown) [Example 4, N-{2-Methyl-4-[3-(2-methyl-pyrrolidin-1-ylmethyl)-pyrrolidin-1-yl]-phenyl}-6-pyrrol-1-yl-nicotinamide]"
6,19.2 nM,"Cc1ccc2c(O)c(C(=O)Nc3ccc(N4CCC(CN5CCCC5C)C4)cc3C)cnc2n1 (stereo not shown) [Example 17, 4-Hydroxy-7-methyl-[1,8]naphthyridine-3-carboxylic acid {2-methyl-4-[3-(2-methyl-pyrrolidin-1-ylmethyl)-pyrrolidin-1-yl]-phenyl}-amide]"
7,18 nM,"Cc1cc(N2CCC(CN3CCCC3C)C2)ccc1NC(=O)c1ccc2cc[nH]c2c1 (stereo not shown) [Example 8, 1H-Indole-6-carboxylic acid {2-methyl-4-[3-(2-methyl-pyrrolidin-1-ylmethyl)-pyrrolidin-1-yl]-phenyl}-amide]"
